As a reminder, the viability, T/C is the result in the treated group divided by that in the control group, in per cent. One may read the IC50 as the point on the concentration scale where inhibition reaches its midpoint.

Several values for one entry are separate records, joined by “and”; a condition that tells them apart may be missing. Identical values can stand only once. Some results are limits rather than exact numbers.

The test system of this assay is MDA-MB-468 complex spheroids with HUVEC/MSC, viability. Kind of assay: Anticancer human tumor MDA-MB-468 cell line growth inhibition.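 On all read-outs here: spheroids exposed to agents for seven days.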 Conditions: for viability, T/C: stronger effect = lower value; for IC50: curve of compound. An excerpt:
Multicellular complex tumor spheroid response to LSD1 Inhibitor Iadademstat in combination with a variety of drugs and investigational agents in selected tumor cell lines
The current study was undertaken to assess response to LSD1 inhibitors in combination with standard-of-care drugs and investigational agents in solid tumor complex spheroid models as well as in the K-562 leukemia. Complex spheroids include a stromal component modeled by human endothelial cells (HUVEC) and fibroblasts modeled by human mesenchymal stem cells (MSCs). The concentration ranges selected for each drug and investigational agent were based upon clinically achievable concentrations if the clinical Cmax of the agent was known.
Compounds. The drugs and investigational agents used in this study are listed on Table 1. All of the agents used, including staurosporine (NSC755774) and gemcitabine (NSC613327), were obtained from the Developmental Therapeutics Program, NCI. FDA-approved anticancer drugs are available from the NCI at http://dtp.nci.nih.gov/branches/dscb/oncology_drugset_explanation.html. Drugs and investigational agents were >95% pure by proton nuclear magnetic resonance (NMR) and liquid chromatography/mass spectrometry (LC/MS). Stock solutions were prepared at 400x in DMSO, stored at -70 degrees C, and diluted in fresh medium prior to their use. The final concentration of DMSO in cell culture wells never exceeded 0.25% (v/v). The FDA-approved anticancer drug set is available from the Developmental Therapeutics Program at https://dtp.cancer.gov/organization/dscb/obtaining/available_plates.htm. All drugs and investigational agents were tested over a range starting from a high concentration at or near the clinical Cmax and decreasing in half-log increments. If the clinical Cmax for an agent had not been determined, the highest concentration tested was 10 microM.
Cell Lines. The patient-derived cancer cell (PDC) lines: 292921-168-R-J2-PDC, K24384-001-R-PDC, and 521955-158-R2-J5-PDC pancreatic carcinomas, 556581-035-R-J1 ovarian carcinoma, 324938-238-R-J1-PDC, 855422-203-R-J1-PDC and 883617-216-R-J1-PDC urothelial bladder carcinomas, 743489-274-T-PDC renal cell carcinoma, 138582-R-J1 Merkel cell tumor, K60290-347-R-J1 and K57222-313-R-J1-PDC glioblastomas, 653999-131-R-J2-PDC, LG0703-F948-PDC, and 349418-098-R-PDC non-small cell lung carcinomas, 885512-296-R-J2-PDC, 171881-019-R-J1-PDC breast carcinomas and 186277-243-T-J2-PDC and 233499-124-R-J2-PDC colon carcinomas were obtained from the NCI Patient-Derived Models Repository (PDMR, https://pdmr.cancer.gov). The established cell lines NCI/ADR-RES (RRID:CVCL_14520 and OVCAR-5 (RRID:CVCL_1628) ovarian carcinomas, 786-O (RRID:CVCL_1051) and A498 (RRID:CVCL_A498) renal cell carcinoma, NCI-H211 (ATCC, cat. CRL-5824; RRID:CVCL_1529), NCI-H196 (ATCC, cat. CRL-5823, RRID:CVCL_1509), SW 1271 (ATCC, cat. CRL-2177, RRID:CVCL_1716) and NCI-H1876 (ATCC, cat. CRL-5902, RRID:CVCL_1503) small cell lung carcinomas, MDA-MB-231 (RRID:CVCL_0062) and MDA-MB-468 (RRID:CVCL_0419)breast carcinomas (10-12). Pooled donor human umbilical vein endothelial cells (HUVEC, Lonza, cat. CC-2519) and human mesenchymal stem cells (hMSC, Lonza, cat. PT-2501) were purchased from Lonza (Walkersville, MD).
Cell Culture. All cells were maintained in an incubator at 37 degrees C and 5% CO2 with 95% humidity. The PDC lines were cultured according to standard operating procedures established by the NCI PDMR (https://pdmr.cancer.gov). Briefly all PDCs were thawed and cultured in Matrigel-coated flasks prepared with a working solution of 1X Ham's F-12 nutrient mix, without supplementation (Invitrogen, Waltham, MA, cat. 11765054), 100 U/mL penicillin-streptomycin (Invitrogen, cat. 15140122), and 2.5% Matrigel (Corning Inc., Corning, NY, cat. 354248) for the first three passages. […]

Regarding `Cn1ncnc1C1c2n[nH]c(=O)c3cc(F)cc(c23)NC1c1ccc(F)cc1` (stereo unspecified), the IC50 was > 100 nM. In addition, the viability, T/C (compound 0.000316 µM) was 103% and 96.9%. Besides, the viability, T/C (compound 0.001 µM) is 86.7% and 79.6%. Besides, the viability, T/C (compound 0.00316 µM) is 77.2% and 65.3%. For the same compound, the viability, T/C (compound 0.01 µM) was 72% and 75%. For the same compound, the viability, T/C (compound 0.0316 µM) was 61.2% and 64.5%. In addition, the viability, T/C (compound 0.1 µM) is 60.7% and 50.9%.

For the compound `NS(=O)(=O)OCC1CC(n2ccc3c(NC4CCc5ccccc54)ncnc32)CC1O` (stereo unspecified), the IC50 was 31.5 nM and 12 nM. Also, the viability, T/C (compound 0.00949 µM) is 67.5% and 55.7%. Moreover, the viability, T/C (compound 0.03 µM) was 52.1% and 28.4%. Where the note is “compound 0.0949 µM”, the viability, T/C was 19.3% and 11.1%. Besides, the viability, T/C (compound 0.3 µM) is 12.9% and 5.49%. Where the note is “compound 0.949 µM”, the viability, T/C is 6.45% and 3.24%. Further, the viability, T/C (compound 3 µM) is 3.84% and 2.08%.

Consider `Nc1ccccc1NC(=O)c1ccc(CNC(=O)OCc2cccnc2)cc1`, for which the IC50 is 145 nM and 74.3 nM. Besides, the viability, T/C (compound 0.00949 µM) is 98.7% and 100%. Moreover, the viability, T/C (compound 0.03 µM) is 99.5% and 103%. Also, the viability, T/C (compound 0.0949 µM) was 70.2% and 36.1%. The viability, T/C (compound 0.3 µM) is 14.8% and 2.86%. Under “compound 0.949 µM”, the viability, T/C was 3.01% and 0.37%. Besides, under “compound 3 µM”, the viability, T/C is 1.7% and 0.2%.

With `Nc1ccn(C2OC(CO)C(O)C2(F)F)c(=O)n1` (stereo unspecified), the IC50 is < 0.949 nM. For the setting “compound 0.003 µM”, the viability, T/C was 6.32% and 18.5%. Under “compound 0.00949 µM”, the viability, T/C is 5.5% and 5.58%. The viability, T/C (compound 0.03 µM) is 5.68% and 4.46%. In addition, under “compound 0.0949 µM”, the viability, T/C is 5.72% and 4.42%. Also, the viability, T/C (compound 0.3 µM) was 5.93% and 4.29%.

`Nc1ncn(C2CC(O)C(CO)O2)c(=O)n1` (stereo unspecified): the IC50 was 13.6 nM and 17.3 nM. Also, the viability, T/C (compound 0.00316 µM) is 81.4% and 94.2%. In addition, the viability, T/C (compound 0.01 µM) was 59.5% and 67%. Also, the viability, T/C (compound 0.0316 µM) was 23.6% and 31.2%. For the setting “compound 0.1 µM”, the viability, T/C is 15% and 14.6%. Further, where the note is “compound 0.316 µM”, the viability, T/C was 12.6% and 11%. The viability, T/C (compound 1 µM) was 12% and 8.85%.

`Nc1ncn(C2CC(O)C(CO)S2)c(=O)n1` (stereo unspecified): the IC50 is 120 nM and 35.5 nM. In addition, under “compound 0.000949 µM”, the viability, T/C is 79.6% and 100%. Moreover, the viability, T/C (compound 0.003 µM) is 74.9% and 93.2%. Also, where the note is “compound 0.00949 µM”, the viability, T/C was 75.2% and 70.6%. For the same compound, the viability, T/C (compound 0.03 µM) is 73.4% and 52%. Further, under “compound 0.0949 µM”, the viability, T/C was 53.9% and 36.5%. The viability, T/C (compound 0.3 µM) was 34.9% and 20.4%.

For `O=C(C=Cc1cccc(S(=O)(=O)Nc2ccccc2)c1)NO`, the IC50 was 75.6 nM and 52 nM. Where the note is “compound 0.00949 µM”, the viability, T/C is 80.6% and 78.8%. Also, for the setting “compound 0.03 µM”, the viability, T/C is 72.8% and 67.2%. Moreover, for the setting “compound 0.0949 µM”, the viability, T/C was 44.4% and 25.1%. In addition, under “compound 0.3 µM”, the viability, T/C is 17.5% and 2.5%. Also, under “compound 0.949 µM”, the viability, T/C is 4.34% and 0.22%.

In the case of `O=C(C=Cn1cnc(-c2cc(C(F)(F)F)cc(C(F)(F)F)c2)n1)NNc1cnccn1`, the IC50 is < 3.16 nM. Further, the viability, T/C (compound 0.00316 µM) is 39.9% and 36.5%. Further, the viability, T/C (compound 0.01 µM) is 29.8% and 27.9%. Where the note is “compound 0.0316 µM”, the viability, T/C was 8.39% and 16.7%. The viability, T/C (compound 0.1 µM) is 3.01% and 3.24%. Also, where the note is “compound 0.316 µM”, the viability, T/C was 2.33% and 1.39%. In addition, the viability, T/C (compound 1 µM) was 1.59% and 0.94%.

For the compound `O=C(c1cc(Cc2n[nH]c(=O)c3ccccc23)ccc1F)N1CCN(C(=O)C2CC2)CC1`, the IC50 was 989 nM and 1050 nM. Also, the viability, T/C (compound 0.0316 µM) is 94.3% and 76.8%. Further, the viability, T/C (compound 0.1 µM) is 73.5% and 79.1%. Also, the viability, T/C (compound 0.316 µM) is 75% and 69.3%. Besides, the viability, T/C (compound 1 µM) is 52.9% and 52.6%. The viability, T/C (compound 3.16 µM) is 21.7% and 20.2%. The viability, T/C (compound 10 µM) was 22.6% and 21.4%.
